Laboratory results published in patent US10532066B2, “Surfactant lipids, compositions thereof, and uses thereof” (National Jewish Health, priority 2007, dated 2020).

Legend:
[1] = system: RSV; test: RSV plaque progression in Hep2 monolayers, lipid in agar overlay; type: cell-based, Respiratory Syncytial Virus (RSV); conditions: lipid in agar overlay 5 hours after virus, POPG 200-500 ug/ml, POPC 500 ug/ml, 5 days
Procedure: Monolayers of Hep2 cells were subjected to RSV infection at levels that produce ca 100 plaques per well in quantitative plaque assays. The virus was incubated with the cells for 5 hours prior to agar overlay. The agar overlays contained either no additions, or POPG (200-500 ug/ml) or POPC (500 ug/ml).
The effects of POPG upon plaque formation as shown in Panel a of FIG. 39 were quantified in 3 independent experiments and are presented in this figure. The left panel of FIG. 40 provides the numbers of definite, and minute indefinite plaques formed in the absence and presence of POPG (200-500 ug/ml) as indicated. The right panel of FIG. 40 provides the numbers of definite plaques observed in the absence and presence of either POPG or POPC (200-500 ug/ml) as indicated.

[2] = system: Respiratory Syncytial Virus (RSV); test: RSV-induced cytokine production in NHBE cells; type: cell-based; conditions: RSV multiplicity 3, 48 h, lipid 200 ug/ml
[3] = system: Respiratory Syncytial Virus (RSV); test: Cytopathic effects of RSV upon BEAS2B cells (photomicrography); type: cell-based; conditions: multiplicity 3, 72 h, lipid 200 ug/ml
Procedure: Monolayers of BEAS2B cells were infected with RSV at a multiplicity of 3 for 72 h. Infections were performed on cells in either the absence or the presence of POPG (200 ug/ml). The cell monolayers were photographed at a magnification of 200×. Controls consisted of no viral challenge in either the presence or absence of POPG as indicated.
Monolayers of BEAS2B cells were infected with RSV at a multiplicity of 3 for 72 h. Infections were performed on cells in either the absence (b) or the presence (c,f) of POPG (200 ug/ml) and POPC (200 ug/ml) as indicated. Cells were photographed at a magnification of 200×. Controls (a,d,e) consisted of cell layers either not exposed to virus or exposed to POPG, and POPC in the absence of virus as indicated.
Monolayers of BEAS2B cells were infected with RSV at a multiplicity of 0.5-1, in either the presence or absence of 200 ug/ml POPG, or 200 ug/ml POPC, as indicated.
Monolayers of BEAS2B cells were either uninfected (CONL) or challenged with RSV at a multiplicity of 0.5/cell (RSV). Where indicated in the FIG. 44, RSV challenged cells were also treated with POPC (200 ug/ml) or POPG (200 ug/ml) liposomes; or POPG nanodiscs (nanoPOPG) at concentrations ranging from 100-300 ug/ml. Selected panels and fields are also shown at 400× magnification in FIG. 45.
Where indicated in FIG. 46, RSV challenged cells were also treated with nanodisc forms of dipalmitoyl-phosphatidylcholine (nanoDPPC), palmitoyl-oleoyl-phosphatidylcholine (nanoPOPC), or dioleoyl-phosphatidylcholine (nanoDOPC), dipalmitoyl-phosphatidylglycerol (nanoDPPG), dimyristoyl-phosphatidylglycerol (nanoDMPG), or dioleoyl-phosphatidylglycerol (nanoDOPG). At 72 h after infection, the cultures were examined by photomicrography at a magnification of 200×.

[4] = system: Respiratory Syncytial Virus (RSV); test: Cytopathic effects of RSV upon NHBE cells (photomicrography); type: cell-based; conditions: multiplicity 3, 72 h, lipid 200 ug/ml
Procedure: Monolayers of NHBE cells were infected with RSV at a multiplicity of 3 for 72 h. Infections were performed on cells in either the absence or the presence of POPG (200 ug/ml). The cell monolayers were photographed at a magnification of 200×. Controls consisted of no viral challenge in either the presence or absence of POPG as indicated.
Monolayers of NHBE cells were infected with RSV at a multiplicity of 3 for 72 h. Infections were performed on cells in either the absence (b) or the presence (c,f) of POPG (200 ug/ml) and POPC (200 ug/ml) as indicated. Cells were photographed at a magnification of 200×. Controls (a,d,e) consisted of cell layers either not exposed to virus or exposed to POPG, and POPC in the absence of virus as indicated.
Monolayers of normal human bronchial epithelial cells were infected with RSV at a multiplicity of 0.5-1, in either the presence or absence of 200 ug/ml POPG, or 200 ug/ml POPC, as indicated.

[5] = system: MAPK, IkBα and MKP-1 in differentiated U937 cells; test: Western blot of LPS induced MAPK and IkBα phosphorylation and MKP-1 expression; type: cell-based, human; conditions: LPS 10 ng/ml, liposomes 200 μg/ml
Procedure: FIG. 4. POPG inhibits LPS induced MAPK and IkBα phosphorylation and MKP-1 expression. POPG liposomes (200 μg/ml) were added to monolayer cultures of differentiated U937 cells that received either no treatment or 10 ng/ml LPS. After incubating for the indicated time, cells were lysed using lysis buffer containing detergent, protease inhibitors and phosphatase inhibitors. Aliquots with 15 μg of protein from lysates were separated by SDS-PAGE and transferred onto nitrocellulose membranes. The amount of phosphorylation was detected using phospho-specific antibodies to p38MAPK, p42/p44 ERK, p46-p54 INK and phosphorylated IkBα. To determine equal loading of proteins between samples, the membranes were probed with rabbit polyclonal p46 INK, p42/p44 ERK, p38MAPK and IkBα antibodies. The expression of MKP-1 was detected with a polyclonal MKP-1 antibody.
FIG. 5. Quantification of POPG inhibition of LPS induced signaling. Western blot analysis as described in FIG. 4 was performed three or four times on separate samples and the intensity of phospho-p38, phospho-IkBα, phosphoERK, phospho JNK, phospho IkBα, total IkBα and MKP-1 was calculated using NIH Image J1.34 software.
FIG. 6. Molecular specificity in POPG action. Liposomes composed of POPC, DPPG or POPG were added to monolayer cultures of differentiated U937 cells that received either no treatment or 10 ng/ml LPS, as indicated. After 30 or 60 min cells were lysed and 15 μg of cellular protein from cultures was separated by SDS-PAGE and transferred onto nitrocellulose membranes. Phosphorylated and nonphosphorylated proteins were detected as described in FIG. 4.
FIG. 7. Comparative quantification of lipid dependent antagonism of LPS signaling. Western blot analysis was performed as described in FIG. 6 in three independent experiments. The intensity of the phosphorylated (p38, ERK, JNK and IkBα) and nonphosphorylated (total IkBα and MKP-1) proteins of interest was measured using NIH Image 0.1.34 software. Significance—*p<0.05, ** p<0.01.
Monolayers of unstimulated or stimulated macrophages were lysed on ice with 250 μl of ice-cold lysis buffer [50 mM Tris.HCl, pH 8.0, containing 137 mM NaCl, 10% (vol/vol) glycerol, 1% (vol/vol) Nonidet P-40, 1 mM NaF, 10 μg/ml leupeptin, 10 μg/ml aprotinin, 2 mM Na3VO4, and 1 mM phenylmethylsulfonyl fluoride (29). Insoluble nuclear material was pelleted by centrifugation at 14,000×g for 10 min at 4° C. and the supernatants were collected. 15 μg of protein from lysates was separated by SDS-PAGE and transferred onto nitrocellulose membranes (30). The blots were then washed in Tris-Tween-buffered saline [TTBS, 20 mM Tris-HCl buffer, pH 7.6, containing 137 mM NaCl and 0.05% (vol/vol) Tween 20], blocked with 5% (wt/vol) nonfat dry milk for 1 hour, and probed according to the method described by Towbin et. al. (30) with phospho-specific antibodies to p46-p54 JNK, p42/p44 ERK, and p38MAPK, or IkBα or with a polyclonal MKP-1 or IkBα antibodies in 5% (wt/vol) BSA dissolved in TTBS. With the use of horseradish peroxidase-conjugated secondary anti-rabbit or anti-mouse antibody, bound antibodies were detected by enhanced chemiluminescence (ECL plus, Amersham Biosciences, Piscataway, N.J.). To determine loading of proteins between samples, the membranes were probed with rabbit polyclonal p46 JNK, p42/p44 ERK, and p38MAPK antibodies.

[6] = system: Respiratory Syncytial Virus (RSV); test: RSV-induced cytokine production in BEAS2B cells; type: cell-based; conditions: RSV multiplicity 3, 48 h, lipid 200 ug/ml

With CCCCCCCC/C=C\CCCCCCCC(=O)O[C@H](COC(=O)CCCCCCCCCCCCCCC)COP(=O)([O-])OCC[N+](C)(C)C [POPC, palmitoyl-oleoyl-phosphatidylcholine, reference compound] the “progression of RSV infection (plaques)” value [1] was “bullseye plaques”, the IL-6 production [2] was “not” and the “cytopathic effects of RSV” value [3] was “not”. For the same compound, the “cytopathic effects of RSV” value [4] was “not”, the “LPS-induced MKP-1 expression” value [5] was “neither POPC nor DPPG exerted a significant effect” and the “LPS-induced phosphorylation of p38, ERK, JNK and IkBα” value ([5]; 15-60 min) was “neither POPC nor DPPG exerted a significant effect”. The IL-6 production [6] was “not”.
